Laboratory results published in patent US7557144B1, “Modulation of protein expression using carbocyclic aryl alkenoic acid derivatives” (The Johns Hopkins University, priority 2000, dated 2009).

What was measured:
Format in all cases: cell-based, human
ΔF508-CFTR [1] = experiment: CFTR bands B and C in primary cystic fibrosis bronchial epithelial cells; settings: primary CF bronchial epithelial cells, 48 hr
Protocol: Shown in FIGS. 10A and 10B are results of CF bronchial epithelial cells were harvested from the discarded lungs of a CF patient who underwent therapeutic lung transplant. The genotype is homozygous ΔF508. The methods are as described above. Control cells grown in standard conditions for 0 or 48 hrs are in lanes 6 and 7. Bands B and C are barely detectable. […] The test compound in doses from 1 μM to 1 mM for 48 hr is shown in decreasing order in lanes 2-5.

Hsc70 [2] = experiment: Hsc70 immunoblot in primary CF bronchial epithelial cells
Protocol: Shown in FIG. 11 is an experiment in which cells were exposed to control or test conditions or study drug for 48 hrs and then analyzed by immunoblotting for Hsc70, a 70 kD heat shock chaperone protein. […] Hsc70 is not as dramatically down regulated by growth at 27° C.
Shown in FIG. 12 is an experiment performed along lines as shown in FIG. 10A in the same primary cell line. Hsc70 under control conditions is strongly visible in lane 6. Study drug at 1 μM or higher, and low temperature, are associated with more than 50% reduction in Hsc70.

ΔF508-CFTR [3] = experiment: CFTR immunoprecipitation and phosphorylation in IB3-1 cells (bands B and C)
Protocol: CFTR was immunoprecipitated and phosphorylated as described in the Methods. […] Band B CFTR is barely visible consistent with low level ΔF508 expression. The positive control condition, untreated cells grown at 28° C., is in lane 7. Band C has been induced and Band B is relatively depleted consistent with an effect of low temperature on protein trafficking. […] This is consistent with an effect on protein production and on protein trafficking.
Shown in FIGS. 9A and 9B are independent experiments performed as described above. Now the control cells are analyzed in lane 5. Lanes 1-4 show decreasing concentrations of the test compound.
CFTR was detected by immunoprecipitation and phosphorylation. Control cells at 0 and 32 hrs have barely visible CFTR bands B and C. Exposure to low temperature induces band C. 1 mM 4-phenyl-Δ3-transbutenoic acid begins to induce band C and 4 hr and appears maximal by 16 hrs.

ΔF508-CFTR/Hsc70 complex = experiment: Immunoprecipitation of Hsc70 and coimmunoprecipitation of CFTR from treated IB3-1 cells; settings: 2 days, butyrate 1 mM, glycerol 1 M, phenylacetate 1 mM, G418 0.2 mg/ml
Hsc70 mRNA = experiment: RNase protection assay of Hsc70 mRNA in IB3-1 cells; settings: 2 days, 1 mM butyrate, 1 M glycerol
Text: 4. RNase protection. An Hsc70-specific probe for RNase protec-tion was constructed by isolation a 500-bp EcoR I fragment from American Type Culture Collection (ATCC) plasmid 77659 (ATCC, Manassas, Va.) and ligating this fragment into the EcoR I site of pSK(2) (Bluescript, Stratagene, La Jolla, Calif.). The resulting plasmid was sequenced in the Genetics Core Facility at the Johns Hopkins Hospital and found to be identical to sequences in exons 8 and 9 of the human Hsc70 sequence, with sequencing using the T3 primer and T7 primer leading to sense and antisense sequence, respectively. Hybridization probes were synthesized using a Maxiscript T7 kit (Ambion, Austin, Tex.) and [α^32 P]UTP (Amersham or DuPont NEN, Boston, Mass.) according to the Maxiscript protocol. Templates for internal control hybridizations, pTRI-18S and pTRI-cyclophilin A, were purchased from Ambion, and probes were similarly synthesized using the Maxiscript T7 kit. Probes were isolated by acid phenol-chloroform (Ambion) extraction, separated from unincorporated nucleotide by gel filtration (Sephadex G25 RNAspin column, Boehringer-Mannheim), and ethanol-acetate precipitated before resuspension in hybridization buffer. The concentration of radioactivity in the synthesized probes was determined by liquid scintillation.
RNase protection experiments were performed using the Direct Protect RNase protection assay kit (Ambion) according to the manufacturer's protocol. IB3-1 cell lysates were pre-pared in Direct Protect lysis buffer according to the manufacturer's protocol after incubation under the appropriate conditions for 48 h. Probe (50-70 and 5-10 thousands of counts/min for Hsc70 and control, respectively) and cellular RNA were hybridized overnight at 37° C. and digested with RNase cocktail. Protected fragments were resolved by electrophoresis on 5% acrylamide-8 M urea gels and detected by fluorography. Hsc70 mRNA concentration is expressed relative to control (18S or cyclophilin A) hybridization by densitometry (see Densitometric analysis). Results for hybridization of Hsc70 mRNA relative to the two control species were similar and were therefore grouped for data analysis.
FIGS. 3A-B are explained in more detailed as follows. Dose-dependent downregulation of Hsc70 mRNA expression by 4-PBA. A: IB3-1 cells were treated as for FIGS. 1 and 2. Hsc70 mRNA and 18S rRNA (as an internal reference) were measured by Direct Protect RNase protection as described under General Comments. […] P values (shown above respective error bars) were determined by 1-way ANOVA in comparison with control.
FIG. 6 is explained in more detail as follows. […] P values (shown above respective error bars) were determined by 1-way ANOVA in comparison with control.

Hsp70 = Hsp70 immunoblot of IB3-1 lysates; settings: IB3-1 cells, 37° C., 2 days; butyrate 1 mM, glycerol 1 M, phenylacetate 1 mM, G418 0.2 mg/ml
Protocol: (§1) 3. Immunoblot analysis. Whole cell lysates were prepared by solubilization with 2% SDS at 95° C. Protein concentration in the lysates was determined using the Bio-Rad DC assay reagents with bovine plasma g-globulin as a standard (Bio-Rad Laboratories, Hercules, Calif.). Equal amounts of protein was resolved on 5, 7, 8, or 9% SDS-polyacrylamide gels. Proteins were transferred to nitrocellulose, and immunodetection was performed as previously described (25). Nonspecific binding was blocked by incubation of the nitrocellulose with 2% gelatin or 10% nonfat day milk. Primary antisera and secondary antibodies were applied in buffer containing 0.4% BSA overnight at 4° C. and for 1 h at room temperature, respectively. Detection of immunoreactivity was performed with the enhanced chemiluminescence reagent (ECL, Amer-sham) and fluorography. Recombinant bovine Hsc70 ([…]) was purchased from Stressgen Biotechnologies for use in constructing a standard curve of Hsc70 immunoreactivity. Immunoblots containing the bovine Hsc70 were probed with the Hsc70-specific polyclonal antiserum.
(§2) Whether 4-PBA would regulate expression of a number of other molecular chaperones in IB3-1 cells (FIG. 2) was assessed next. […] Hsp90 is required for correct folding and function of a number of cellular proteins (16). […] Hsp70 (Hsp72) expression is induced by heat shock and the presence of denatured proteins within the eukaryotic cell (16). In Escherichia coli, the Hsp70 homologue DnaK and the Hsp40 homologue DnaJ act to promote protein folding (16). Hdj2 is the member of the Hsp40 family that specifically interacts with and regulates the ATPase activity of Hsc70. Hdj2 also interacts with CFTR during CFTR translation (26).
FIGS. 2A-2E are more specifically explained as follows. […] IB3-1 cells were treated as described for FIG. 1. Immunoblotting with 5 μg of IB3-1 SDS lysate protein was performed as described in the foregoing General Comments.
FIGS. 5A-C are explained in more detail as follows. […] A: IB3-1 cells were incubated at 37° C. for 2 days under indicated conditions. Cellular homogenates were prepared in 2% SDS as described in METHODS, and 5 μg of total cellular protein were analyzed by immunoblot for Hsc70 using rabbit polyclonal antiserum, Hsp90, Hsp70, Hsp40 as described above under General Comments. Con, control. B and C: densitometric analysis of Hsc70 expression (B) and Hsp90, Hsp70, and Hsp40 expression (C) was performed as described for FIG. 1. B: means 6 SE of density in 4 independent experiments.

Hsc70 [4] = experiment: Hsc70 immunoblot of IB3-1 whole cell lysates; settings: IB3-1 cells, 37° C., 2 days; butyrate 1 mM, glycerol 1 M, phenylacetate 1 mM, G418 0.2 mg/ml
Protocol: as §1

Hsp40 = Hsp40 immunoblot of IB3-1 lysates; settings: IB3-1 cells, 37° C., 2 days; butyrate 1 mM, glycerol 1 M, phenylacetate 1 mM, G418 0.2 mg/ml
Protocol: as §1, §2
(§3) FIGS. 2A-2E are more specifically explained as follows. […]
(§4) FIGS. 5A-C are explained in more detail as follows. […] Cellular homogenates were prepared in 2% SDS as described in METHODS, and 5 μg of total cellular protein were analyzed by immunoblot for Hsc70 using rabbit polyclonal antiserum, Hsp90, Hsp70, Hsp40 as described above under General Comments. […]

Hsp90 = Hsp90 immunoblot of IB3-1 lysates; settings: IB3-1 cells, 37° C., 2 days; butyrate 1 mM, glycerol 1 M, phenylacetate 1 mM, G418 0.2 mg/ml
Protocol: as §1, §2, §3, §4

[5] = IB3-1 cells, 1 μM to 100 μM, 48 hr (FIG. 8)

SMILES | amount of immunoreactive CFTR coprecipitated with Hsc70 (ΔF508-CFTR/Hsc70 complex) | reduction in steady-state Hsc70 mRNA levels (Hsc70 mRNA) [%] | Hsp70 immunoreactivity (Hsp70) | Hsc70 immunoreactivity (Hsc70 [4]) | Hsp40 immunoreactivity (Hsp40) | Hsp90 immunoreactivity (Hsp90) | further results
O=C(O)CC=Cc1ccccc1 [4-phenyl-Δ3-transbutenoic acid] | – | – | – | – | – | – | concentration giving maximum induction of bands B and C (ΔF508-CFTR [1]; doses 1 μM to 1 mM): 1 mM; induction of CFTR bands B and C (ΔF508-CFTR [1]; homozygous ΔF508, 1 μM): dramatic induction of bands B and C; reduction in Hsc70 (Hsc70 [2]; 1 μM or higher (FIG. 12)): more than 50%; reduction in Hsc70 (Hsc70 [2]; 100 μM and 1 mM, 48 hrs, semi-quantitative blot (FIG. 11)): ≥ 50%; Band B and total CFTR (ΔF508-CFTR [3]; [5]): induction; induction of Band C CFTR (ΔF508-CFTR [3]; [5]): dose-dependent induction of Band C; time at which induction of band C begins (ΔF508-CFTR [3]; IB3-1 cells, 1 mM): 4 h; time by which induction of band C appears maximal (ΔF508-CFTR [3]; IB3-1 cells, 1 mM): ≤ 16 h; induction of CFTR bands B and C (ΔF508-CFTR [3]; IB3-1 cells, independent experiments (FIGS. 9A and 9B)): dose-dependent induction of bands B and C; effectiveness compared with 4-PBA (ΔF508-CFTR [3]; data of Examples 4-12): much more effective at lower concentrations
OCC(O)CO [glycerol] | decreases | ~50 | not change | reduction | not change | not change | –
CCCC(=O)O [butyrate, butyric acid] | – | ~50 | – | – | – | – | –
O=C(O)Cc1ccccc1 [Phenylacetate, phenylacetic acid] | little effect | – | not affected | little effect | not affected | little effect | –
